Data reported in ChEMBL document CHEMBL5506053, “Explorations of Agonist Selectivity for the α9* nAChR with Novel Substituted Carbamoyl/Amido/Heteroaryl Dialkylpiperazinium Salts and Their Therapeutic Implications in Pain and Inflammation” (J Med Chem, 2024).
pEC50, pIC50: −log10 of the molar value. Calls of active or inactive are those of the source. The calls are words filed in the database; no cut-off is given here.

How the values were obtained:
[1] = biological target: T1, Neuronal acetylcholine receptor; alpha4/beta2 (Homo sapiens) (UniProt P17787+P43681); experiment: (§1) Inhibition of acetylcholine induced response in human alpha4beta2 nAChR expressed in xenopus laevis oocytes assessed as fold change at 30 uM preincubated with 3 uM acetylcholine followed by compound administration for 12 sec and measured 181 sec post washout by two-electrode voltage-clamp electrophysiology method relative to acetylcholine alone; assay type: cell-based; conditions: Oocyte
[2] = biological target: T2, Neuronal acetylcholine receptor subunit alpha-7 (Homo sapiens, UniProt P36544); experiment: (§2) Partial agonist activity at human alpha7 nAChR expressed as xenopus laevis oocytes assessed as increase in receptor desensitization by measuring fold change in maximum response (Imax) measured after 120 secs by two-electrode voltage-clamp electrophysiology method relative to acetylcholine; assay type: cell-based; conditions: Oocyte, filed as partial agonist, time 120.0 sec
T2 sequence (P36544 whole entry): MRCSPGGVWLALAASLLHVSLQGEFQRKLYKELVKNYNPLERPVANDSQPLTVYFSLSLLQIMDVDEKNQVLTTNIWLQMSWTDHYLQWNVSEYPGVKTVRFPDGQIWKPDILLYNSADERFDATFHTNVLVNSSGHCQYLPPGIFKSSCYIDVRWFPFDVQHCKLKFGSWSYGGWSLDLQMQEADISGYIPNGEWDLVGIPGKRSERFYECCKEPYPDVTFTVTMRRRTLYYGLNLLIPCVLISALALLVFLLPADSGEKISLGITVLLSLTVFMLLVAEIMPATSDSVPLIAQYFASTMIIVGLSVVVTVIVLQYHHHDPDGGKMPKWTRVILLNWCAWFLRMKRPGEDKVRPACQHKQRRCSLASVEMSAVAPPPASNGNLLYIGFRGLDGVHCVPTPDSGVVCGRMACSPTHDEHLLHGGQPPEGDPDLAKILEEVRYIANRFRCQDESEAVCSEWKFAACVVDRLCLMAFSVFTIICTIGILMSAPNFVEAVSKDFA

[3] = biological target: T3, Neuronal acetylcholine receptor; alpha3/beta4 (Homo sapiens) (UniProt P30926+P32297); experiment: as §1, with “alpha3beta4” for “alpha4beta2”, “100” for “30”; assay type: cell-based; conditions: Oocyte
[4] = biological target: T3, Neuronal acetylcholine receptor; alpha3/beta4 (Homo sapiens); experiment: Agonist activity at human alpha3beta4 nAChR expressed in xenopus laevis oocytes at 100 uM measured after 120 secs by two-electrode voltage-clamp electrophysiology method relative to control; assay type: cell-based; conditions: Oocyte, time 120.0 sec
[5] = biological target: T2, Neuronal acetylcholine receptor subunit alpha-7; experiment: as §2, with “Agonist” for “Partial agonist”, “peak current” for “maximum”, “at 30 uM incubated for” for “(Imax) measured after”, “secs presence of PNU-120596” for “secs”; assay type: cell-based; conditions: Oocyte, filed as agonist, time 120.0 sec
Oocyte [6] = experiment: as §1, with “mouse muscle alpha1beta1epsilondelta” for “human alpha4beta2”; assay type: cell-based
[7] = biological target: T4, Neuronal acetylcholine receptor; alpha9/alpha10 (Homo sapiens) (UniProt Q9UGM1+Q9GZZ6); experiment: Agonist activity at human alpha9alpha10 nAChR expressed as xenopus laevis oocytes assessed as increase in receptor desensitization by measuring fold change in maximum response (Imax) measured after 120 secs by two-electrode voltage-clamp electrophysiology method relative to acetylcholine; assay type: cell-based; conditions: Oocyte, filed as agonist, time 120.0 sec
[8] = biological target: T1, Neuronal acetylcholine receptor; alpha4/beta2 (Homo sapiens); experiment: Agonist activity at human alpha4beta2 nAChR expressed in xenopus laevis oocytes at 30 uM measured after 120 secs by two-electrode voltage-clamp electrophysiology method relative to control; assay type: cell-based; conditions: Oocyte, time 120.0 sec
[9] = biological target: T5, Neuronal acetylcholine receptor subunit alpha-9 (Homo sapiens, UniProt Q9UGM1); experiment: Agonist activity at human alpha9 nAChR expressed as xenopus laevis oocytes assessed as increase in receptor desensitization by measuring fold change in maximum response (Imax) measured after 120 secs by two-electrode voltage-clamp electrophysiology method relative to acetylcholine; assay type: cell-based; conditions: Oocyte, filed as agonist, time 120.0 sec
T5 sequence (Q9UGM1 whole entry): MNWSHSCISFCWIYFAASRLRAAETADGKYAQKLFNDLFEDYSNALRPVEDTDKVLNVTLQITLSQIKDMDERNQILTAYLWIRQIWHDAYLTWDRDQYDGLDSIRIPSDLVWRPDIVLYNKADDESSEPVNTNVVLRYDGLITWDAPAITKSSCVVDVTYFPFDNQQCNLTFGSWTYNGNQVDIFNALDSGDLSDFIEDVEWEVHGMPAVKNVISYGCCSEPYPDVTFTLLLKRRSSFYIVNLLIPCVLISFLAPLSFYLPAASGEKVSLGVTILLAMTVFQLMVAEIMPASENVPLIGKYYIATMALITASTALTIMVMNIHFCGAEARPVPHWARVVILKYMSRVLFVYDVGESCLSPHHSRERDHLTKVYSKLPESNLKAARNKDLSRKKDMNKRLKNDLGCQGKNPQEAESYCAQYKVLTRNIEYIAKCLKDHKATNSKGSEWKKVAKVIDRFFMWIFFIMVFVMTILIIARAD

Oocyte [10] = experiment: Agonist activity at mouse muscle alpha1beta1epsilondelta nAChR expressed in xenopus laevis oocytes at 30 uM measured after 120 secs by two-electrode voltage-clamp electrophysiology method relative to control; assay type: cell-based; conditions: time 120.0 sec
[11] = biological target: T2, Neuronal acetylcholine receptor subunit alpha-7; experiment: Agonist activity at human alpha7 nAChR expressed as xenopus laevis oocytes assessed as increase in receptor desensitization by measuring fold change in maximum response (Imax) measured after 120 secs by two-electrode voltage-clamp electrophysiology method relative to acetylcholine; assay type: cell-based; conditions: Oocyte, filed as agonist, time 120.0 sec
[12] = biological target: T4, Neuronal acetylcholine receptor; alpha9/alpha10 (Homo sapiens); experiment: Partial agonist activity at human alpha9alpha10 nAChR expressed as xenopus laevis oocytes assessed as increase in receptor desensitization by measuring fold change in maximum response (Imax) measured after 120 secs by two-electrode voltage-clamp electrophysiology method relative to acetylcholine; assay type: cell-based; conditions: Oocyte, filed as partial agonist, time 120.0 sec
[13] = biological target: T2, Neuronal acetylcholine receptor subunit alpha-7; experiment: Ratio for agonist activity at human alpha7 nAChR expressed as xenopus laevis oocytes assessed as increase in receptor desensitization by measuring fold change in peak current response to agonist activity at human alpha7 nAChR expressed as xenopus laevis oocytes assessed as increase in receptor desensitization by measuring fold change in peak current response in presence of PNU-120596; assay type: cell-based; conditions: Oocyte
cells = conditions: Homo sapiens, THP-1
Description: Inhibition of ATP-mediated IL-1beta release in LPS primed BzATP induced monocytic human THP-1 cells primed with LPS for 5 hrs followed by BzATP and compound addition for 40 mins by ELISA

THP-1 [14] = experiment: Induction of IL-1beta release in LPS primed monocytic human THP-1 cells at 10 uM primed with LPS for 5 hrs followed by compound addition and further incubated for 40 mins by ELISA; assay type: functional, cell-based
[15] = biological target: T5, Neuronal acetylcholine receptor subunit alpha-9; experiment: Agonist activity at alpha9 nAChR (unknown origin)
PBMC [16] = experiment: Inhibition of ATP-mediated IL-1beta release in LPS primed BzATP induced human PBMC cells at 100 uM primed with LPS for 3 hrs followed by BzATP and compound addition for 30 mins by ELISA; assay type: functional, cell-based
PBMC [17] = experiment: Inhibition of ATP-mediated IL-1beta release in LPS primed BzATP induced human PBMC cells at 100 fM primed with LPS for 3 hrs followed by BzATP and compound addition for 30 mins by ELISA; assay type: functional, cell-based
[18] = biological target: T2, Neuronal acetylcholine receptor subunit alpha-7; experiment: Agonist activity at alpha7 nAChR (unknown origin)
[19] = biological target: Neuronal acetylcholine receptor; alpha9/alpha10 (Homo sapiens, UniProt Q9GZZ6+Q9UGM1); experiment: Agonist activity at alpha9alpha10 nAChR (unknown origin); assay type: protein-complex assay
Sequence of Neuronal acetylcholine receptor; alpha9/alpha10 (Q9UGM1 whole entry): as above
Sequence of Neuronal acetylcholine receptor; alpha9/alpha10 (Q9GZZ6 whole entry): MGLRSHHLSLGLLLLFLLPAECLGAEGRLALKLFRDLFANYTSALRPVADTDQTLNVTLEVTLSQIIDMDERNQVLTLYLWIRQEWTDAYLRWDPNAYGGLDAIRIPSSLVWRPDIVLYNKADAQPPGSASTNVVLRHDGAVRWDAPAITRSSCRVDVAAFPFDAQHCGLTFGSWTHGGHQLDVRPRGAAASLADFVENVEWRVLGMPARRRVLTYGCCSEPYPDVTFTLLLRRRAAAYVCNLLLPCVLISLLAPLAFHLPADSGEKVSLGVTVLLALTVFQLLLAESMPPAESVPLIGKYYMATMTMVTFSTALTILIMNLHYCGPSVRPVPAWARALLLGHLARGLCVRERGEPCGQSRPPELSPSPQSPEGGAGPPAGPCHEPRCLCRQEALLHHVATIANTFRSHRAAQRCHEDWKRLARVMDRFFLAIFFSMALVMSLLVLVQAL

THP-1 [20] = experiment: Cytotoxicity against monocytic human THP-1 cells assessed as effect on lactate dehydrogenase activity in supernatant; assay type: toxicity, cell-based
[21] = Selectivity ratio for agonist activity at alpha7 nAChR (unknown origin) to agonist activity at alpha9 nAChR (unknown origin)
[22] = biological target: T5, Neuronal acetylcholine receptor subunit alpha-9; experiment: Partial agonist activity at human alpha9 nAChR expressed as xenopus laevis oocytes assessed as increase in receptor desensitization by measuring fold change in maximum response (Imax) measured after 120 secs by two-electrode voltage-clamp electrophysiology method relative to acetylcholine; assay type: cell-based; conditions: Oocyte, filed as partial agonist, time 120.0 sec
[23] = human, caco-2, 2 h
Description: Apparent permeability across apical to basolateral side in human Caco-2 cells at 5 ug/ml measured after 2 hrs by UPLC-MS/MS analysis

[24] = Metabolic stability in pooled BALB/c mouse plasma assessed as half life at 1 uM measured after 0 to 120 mins by UPLC-MS/MS analysis; assay type: ADME, cell-free; conditions: time 0-120 min
[25] = biological target: T4, Neuronal acetylcholine receptor; alpha9/alpha10 (Homo sapiens); experiment: Agonist activity at alpha9alpha10 nAChR (unknown origin) assessed as fold change in maximum response (Imax) relative to acetylcholine; assay type: protein-complex assay; conditions: filed as agonist

| Structure (SMILES) | fold change (FC) [1] | fold change (FC) [3] | Activity [4] [%] | fold change (FC) [5] | fold change (FC) (Oocyte [6]) | fold change (FC) [7] | Activity [8] [%] | fold change (FC) [9] | Activity (Oocyte [10]) [%] | fold change (FC) [11] | other results |
| --- | --- | --- | --- | --- | --- | --- | --- | --- | --- | --- | --- |
| CC[N+]1(CC)CCN(c2ccc(C(=O)Nc3cccc(C)c3)cc2)CC1 | 0.807 | 1.04 | < 1 | 0.17 | 0.555 | 1.12 | < 1 | 1.25 | < 1 | – | fold change (FC) [2]: 0.6 |
| CC[N+]1(CC)CCN(c2ccc(-c3ncco3)cc2)CC1 | 0.823 | 0.507 | < 1 | 0.05 | 0.353 | 0.83 | < 1 | 1.29 | < 1 | – | fold change (FC) [2]: 0.12 |
| CCCNC(=O)c1ccc(N2CC[N+](CC)(CC)CC2)cc1 | 0.946 | 0.65 | < 1 | 0.19 | 0.709 | – | < 1 | 1.13 | < 1 | 0.38 | fold change (FC) [12]: 0.79 |
| CC[N+]1(CC)CCN(c2ccc(NC(=O)c3cccc(C)n3)cc2)CC1 | 1.07 | 0.415 | < 1 | 31.8 | 0.38 | – | < 1 | 1.24 | < 1 | 0.14 | Ratio [13]: 227; fold change (FC) [12]: 0.53 |
| CC[N+]1(CC)CCN(c2ccc(C(=O)Nc3cccc(C)n3)cc2)CC1.[I-] | – | – | – | – | – | – | – | – | – | – | pIC50 (cells): 4.85; Activity (THP-1 [14]): inactive; pEC50 [15]: 6.18; inhibition (PBMC [16]): inactive; inhibition (PBMC [17]): Active; pEC50 [18]: 5.19; pEC50 [19]: 6.01; Activity (THP-1 [20]): Non-Toxic |
| CC[N+]1(C)CCN(c2ccc(NC(C)=O)cc2)CC1 | 1.19 | 0.798 | < 1 | 0.15 | 0.409 | – | < 1 | 0.75 | < 1 | – | fold change (FC) [12]: 3.3 |
| CC[N+]1(CC)CCN(c2ccc(C(N)=O)cc2)CC1 | – | – | – | 0.18 | – | 1.19 | – | 0.8 | – | – | fold change (FC) [2]: 0.34; Selectivity ratio [21]: 66 |
| CC[N+]1(CC)CCN(c2ccc(-n3cccc3)cc2)CC1 | 0.709 | 0.387 | < 1 | 0.08 | 0.691 | 0.17 | < 1 | – | < 1 | 0.041 | fold change (FC) [22]: 0.27 |
| CC[N+]1(CC)CCN(c2ccc(C(=O)N3CCCC3)cc2)CC1 | 0.919 | 0.849 | < 1 | 0.01 | 0.541 | 0.56 | < 1 | – | < 1 | 0.06 | fold change (FC) [22]: 0.69 |
| CC[N+]1(CC)CCN(c2ccc(-n3cccn3)cc2)CC1 | 0.913 | 0.736 | < 1 | 0.17 | 0.59 | – | < 1 | 1.01 | < 1 | – | fold change (FC) [2]: 0.088; fold change (FC) [12]: 0.59 |
| CC(=O)OCC[N+](C)(C)C [ACETYLCHOLINE] | – | – | – | – | – | – | – | – | – | – | Activity (THP-1 [14]): inactive; Activity (THP-1 [20]): Non-Toxic |
| CC(C)NCC(O)COc1cccc2ccccc12 (stereo unspecified) [PROPRANOLOL] | – | – | – | – | – | – | – | – | – | – | Papp [23]: 20 10^-6 cm/s |
| CC[N+]1(CC)CCN(c2ccc(C(=O)Nc3ccccn3)cc2)CC1 | 0.697 | 0.789 | < 1 | 0.12 | 0.506 | 0.94 | < 1 | 1.18 | < 1 | 0.46 | – |
| C[C@H]1O[C@@H](O[C@H]2[C@@H](O)C[C@H](O[C@H]3[C@@H](O)C[C@H](O[C@H]4CC[C@@]5(C)[C@H](CC[C@@H]6[C@@H]5C[C@@H](O)[C@]5(C)[C@@H](C7=CC(=O)OC7)CC[C@]65O)C4)O[C@@H]3C)O[C@@H]2C)C[C@H](O)[C@@H]1O [DIGOXIN] | – | – | – | – | – | – | – | – | – | – | Papp [23]: 5.4 10^-6 cm/s |
| CCN(CC)CCOC(=O)c1ccc(N)cc1 [PROCAINE] | – | – | – | – | – | – | – | – | – | – | t1/2 [24]: < 5 min |
| Cc1cccc(NC(=O)c2ccc(N3CC[N+](C)(C)CC3)cc2)n1 | 0.912 | 0.838 | < 1 | 0.16 | 0.709 | 0.89 | < 1 | – | < 1 | 0.57 | fold change (FC) [22]: 0.51 |
| CC[N+]1(CC)CCN(c2ccc(C#N)cc2)CC1 | – | – | – | – | – | – | – | – | – | – | fold change (FC) [25]: 0.94; pEC50 [15]: 6.43; pEC50 [19]: 5.59 |
